The subject of data set [1] is Staphylococcus aureus. In words: Antibacterial activity against Staphylococcus aureus assessed as inhibition of bacterial growth at 50 uM incubated for 24 hrs by microdilution method. The data set is classed as functional, organism-based. For orientation: In broth dilution the organism is exposed to a series of concentrations in liquid medium.
In data set [2] the test system is Klebsiella pneumoniae. In words: Antibacterial activity against Klebsiella pneumoniae assessed as inhibition of bacterial growth at 50 uM incubated for 24 hrs by microdilution method. The data set is classed as functional, organism-based.
Data set [3] concerns Pseudomonas aeruginosa. In words: Antibacterial activity against Pseudomonas aeruginosa assessed as inhibition of bacterial growth at 50 uM incubated for 24 hrs by microdilution method. The data set is classed as functional, organism-based.
The subject of data set [4] is Klebsiella pneumoniae. As to the kind of experiment: Antibiofilm activity against Klebsiella pneumoniae assessed as inhibition of biofilm formation at 50 uM incubated for 24 hrs by crystal violet staining based analysis relative to control. The data set is classed as functional.
Data set [5] concerns Pseudomonas aeruginosa. As to the kind of experiment: Antibiofilm activity against Pseudomonas aeruginosa assessed as inhibition of biofilm formation at 50 uM incubated for 24 hrs by crystal violet staining based analysis relative to control. Format: functional.
Data set [6] deals with Staphylococcus aureus. In words: Antibiofilm activity against Staphylococcus aureus assessed as inhibition of biofilm formation at 50 uM incubated for 24 hrs by crystal violet staining based analysis relative to control. Format: functional.
The nature of data set [7]: Aqueous solubility of compound. Format: physicochemical. Particulars: buffer.
Data set [8] is described as follows: Inhibition of quorum sensing system in Chromobacterium violaceum assessed as inhibition of violacein secretion by measuring inhibition halo at 50 uM.
Data set [9] is described as follows: Inhibition of quorum sensing system in Chromobacterium violaceum assessed as inhibition of violacein secretion by measuring inhibition halo at 100 uM.
A short description of data set [10]: Cytotoxicity against green monkey COS-7 cells assessed as inhibition of cell growth at 100 uM relative to control. Format: toxicity, cell-based. Particulars: chlorocebus aethiops.
The test system of data set [11] is Rhodopseudomonas palustris. In words: Antibiofilm activity against Rhodopseudomonas palustris assessed as inhibition of biofilm formation at 1 uM relative to control. The data set is classed as functional.

Active and inactive are the calls of the source. No cut-off for these calls is given here.

By inhibition is commonly meant how much of the control response was suppressed. Turning to `CC(C)=CCC/C(C)=C/C(=O)N[C@H]1CCOC1=O`, the outcome in data set [1], in [2] and in [3] was inactive. In addition, the inhibition at 50 µM in data set [4] amounted to 24.5%; in data set [5], 25.3%; in data set [6], 26.5%.

Regarding `O=C(/C=C/c1ccc2c(c1)OCO2)N[C@H]1CCOC1=O`, the result in data set [1], in data set [2] and in data set [3] was inactive. Moreover, the inhibition at 50 µM in data set [4] worked out at 27.1%; in data set [5], 0%; in data set [6], 5%. For the same compound, the solubility result in [7] was “Insoluble”.

With `Cc1ccc(/C=C/C(=O)N[C@H]2CCOC2=O)cc1`, the outcome in data set [1], in [2] and in [3] was inactive. Further, the inhibition at 50 µM in data set [4] was found to be 16.9%; in data set [5], 29.8%; in [6] it was 4.4%. The inhibition zone (IZ) came to 1.3 mm in data set [8] and 2 mm in data set [9].

Take `O=C(/C=C/c1cccs1)N[C@H]1CCOC1=O`: the result in data set [1], in data set [2] and in data set [3] was inactive. Moreover, the inhibition at 50 µM in data set [4] was determined as 12.6%; in data set [5] it was 19.6%; in data set [6], 15.3%.

For `Cn1cccc1/C=C/C(=O)N[C@H]1CCOC1=O`, the outcome in [1], in data set [2] and in data set [3] was inactive. In addition, the inhibition at 50 µM in data set [4], in data set [5] and in [6] was 0% throughout. Besides, the solubility result in data set [7] was “Insoluble”.

Regarding `COc1cccc(/C=C/C(=O)N[C@H]2CCOC2=O)c1`, the outcome in data set [1], in data set [2] and in [3] was inactive. Further, the inhibition at 50 µM in data set [4] stood at 22.3%; in data set [5], 0%; in [6], 27.3%. In addition, the solubility entry in data set [7] is on record as “Insoluble”.

Consider `CC(C)c1ccc(/C=C/C(=O)N[C@H]2CCOC2=O)cc1`, for which the outcome in [1], in data set [2] and in data set [3] was inactive. Further, the inhibition at 50 µM in data set [4] is 17.9%; in data set [5] it was 23.7%; in data set [6], 16.1%.

Consider `O=C(/C=C/c1cccc(F)c1)N[C@H]1CCOC1=O`, for which the result in [1], in [2] and in [3] was inactive. For the same compound, the inhibition at 50 µM in [4], in data set [5] and in data set [6] was 0% in each case. For the same compound, in data set [7], the solubility result was “Insoluble”.

On to `COc1cc(/C=C/C(=O)N[C@H]2CCOC2=O)cc(OC)c1OC`, for which the outcome in data set [1], in data set [2] and in data set [3] was inactive. Further, the inhibition at 50 µM was 0% in data set [4], 26.9% in data set [5] and 37.1% in data set [6]. In addition, the inhibition zone (IZ) is 2.7 mm in data set [8] and 3.7 mm in data set [9]. Further, the inhibition at 100 µM in data set [10] is 3.2%.

Regarding `O=C(/C=C/C=C/c1ccccc1)N[C@H]1CCOC1=O`, the outcome in data set [1], in data set [2] and in data set [3] was inactive. Moreover, the inhibition at 50 µM in data set [4] worked out at 28.3%; in [5], 30.2%; in [6], 14%. For the same compound, the results for the inhibition zone (IZ) in [8] and in [9] were 2.2 mm and 2.7 mm, respectively. In data set [10], the inhibition at 100 µM came to 0%.

`O=C1C=C(Br)/C(=C/Br)O1`: the inhibition at 50 µM was found to be 8.4% in data set [4], 40.2% in data set [5] and 10.1% in data set [6]. The inhibition zone (IZ) in data set [8] amounted to 1.3 mm; in data set [9], 5.1 mm.

`O=C(/C=C/c1cccnc1)N[C@H]1CCOC1=O`: the outcome in data set [1], in data set [2] and in data set [3] was inactive. In addition, the values for the inhibition at 50 µM in data set [4], in data set [5] and in data set [6] were 0%, 14.2% and 0%, respectively.

For `O=C(/C=C/c1ccccc1)N[C@H]1CCOC1=O`, the result in data set [1], in data set [2] and in [3] was inactive. Moreover, the inhibition at 50 µM in data set [4] came to 0%; in [5], 29.1%; in data set [6], 18%. Also, the inhibition zone (IZ) in data set [8] came to 1.3 mm; in data set [9], 0.6 mm.

On to `O=C(/C=C/c1ccc(C(F)(F)F)cc1)N[C@H]1CCOC1=O`, for which the result in data set [1], in data set [2] and in [3] was inactive. For the same compound, the inhibition at 50 µM in data set [4] worked out at 30.2%; in data set [5], 0%; in data set [6], 2.2%.

`O=C(/C=C/c1ccco1)N[C@H]1CCOC1=O`: the result in data set [1], in [2] and in data set [3] was inactive. Besides, the inhibition at 50 µM in [4] is 0%; in [5] it was 24.3%; in [6] it was 18.2%.

Consider `Cn1c(/C=C/C(=O)N[C@H]2CCOC2=O)cc2ccccc21`, for which the outcome in data set [1], in [2] and in data set [3] was inactive. Also, the inhibition at 50 µM in data set [4] came to 0%; in [5], 0%; in [6], 0.5%. In addition, in [7], the solubility result is recorded as “Insoluble”.

`COc1ccc(/C=C/C(=O)N[C@H]2CCOC2=O)cc1`: the outcome in [1], in [2] and in data set [3] was inactive. Besides, the inhibition at 50 µM was determined as 12% in [4], 35.9% in data set [5] and 8.49% in data set [6]. Further, the inhibition zone (IZ) in data set [8] worked out at 0.6 mm; in data set [9], 0.3 mm.

For `O=C(/C=C/c1ccc(Cl)cc1)N[C@H]1CCOC1=O`, the outcome in data set [1], in data set [2] and in data set [3] was inactive. Further, the inhibition at 50 µM in data set [4] is 0%; in data set [5], 23.7%; in data set [6], 12%. In addition, in data set [11], the inhibition at 1 µM is 30%.

As for `O=C(/C=C/c1ccc(F)cc1)N[C@H]1CCOC1=O`, the outcome in [1], in data set [2] and in [3] was inactive. The inhibition at 50 µM came out at 0% in data set [4], 20.3% in data set [5] and 0% in data set [6].

Consider `O=C(/C=C/c1ccc(-c2ccccc2)cc1)N[C@H]1CCOC1=O`, for which the outcome in [1], in data set [2] and in data set [3] was inactive. Further, the inhibition at 50 µM in data set [4] amounted to 0%; in data set [5], 0%; in [6], 8.4%. The solubility result in data set [7] is on record as “Insoluble”.

Values taken from ChEMBL document CHEMBL5356979, “Synthesis, antibiofilm activity and molecular docking of N-acylhomoserine lactones containing cinammic moieties” (Bioorg Med Chem Lett, 2024).
